{"source": "ChEMBL document CHEMBL4616688", "about": "“PROTAC Compounds Targeting TRK for Use in Cancer Therapeutics” (ACS Med Chem Lett, 2020)"}
{"test_system": "KM12", "assay": "Antiproliferative activity against human KM12 cells expressing TPM3-TRKA assessed as reduction in cell viability measured after 3 days by Celltiter-Glo assay", "format": "functional, cell-based", "settings": "KM12, 72 h", "units": {"IC50": "nM"}}
{"compound": "O=C1CCC(N2C(=O)c3ccc(NCCCCC(=O)N4CCN(c5cccc(-c6cnc7ccc(N8CCC[C@@H]8c8cccc(F)c8)nn67)n5)CC4)cc3C2=O)C(=O)N1", "note": "(stereo not given in full)", "IC50": 0.9}
{"compound": "O=C(CN1CCN(c2cccc(-c3cnc4ccc(N5CCC[C@@H]5c5cccc(F)c5)nn34)n2)CC1)NCCNc1ccc2c(c1)C(=O)N(C1CCC(=O)NC1=O)C2=O", "note": "(stereo not given in full)", "IC50": 0.9}
{"compound": "O=C1CCC(N2C(=O)c3ccc(N4CC(C(=O)N5CCN(c6cccc(-c7cnc8ccc(N9CCC[C@@H]9c9cccc(F)c9)nn78)n6)CC5)C4)cc3C2=O)C(=O)N1", "note": "(stereo not given in full)", "IC50": 2}
{"compound": "CN1CCN(c2ccc(C(=O)Nc3n[nH]c4ccc(Cc5cc(F)cc(F)c5)cc34)c(NC3CCOCC3)c2)CC1", "note": "[ENTRECTINIB]", "IC50": 4.3}
{"compound": "OC1CCN(c2cc(-c3cccc(-c4cnc5ccc(N6CCC[C@@H]6c6cccc(F)c6)nn45)n3)ccn2)CC1", "IC50": 46.7}
{"compound": "O=C1CCC(N2C(=O)c3cccc(NCCCC(=O)N4CCN(c5ccc(C(=O)Nc6n[nH]c7ccc(Cc8cc(F)cc(F)c8)cc67)c(NC6CCOCC6)c5)CC4)c3C2=O)C(=O)N1", "note": "(stereo not given)", "IC50": 1.5}
{"compound": "O=C1CCC(N2C(=O)c3ccc(NCCN4CCN(c5cccc(-c6cnc7ccc(N8CCC[C@@H]8c8cccc(F)c8)nn67)n5)CC4)cc3C2=O)C(=O)N1", "note": "(stereo not given in full)", "IC50": 3.4}
{"compound": "O=C(CN1CCN(c2cccc(-c3cnc4ccc(N5CCC[C@@H]5c5cccc(F)c5)nn34)n2)CC1)NCCOCCNc1cccc2c1C(=O)N(C1CCC(=O)NC1=O)C2=O", "note": "(stereo not given in full)", "IC50": 3.8}
{"compound": "O=C(CN1CCN(c2cccc(-c3cnc4ccc(N5CCC[C@@H]5c5cccc(F)c5)nn34)n2)CC1)NCCOCCNc1ccc2c(c1)C(=O)N(C1CCC(=O)NC1=O)C2=O", "note": "(stereo not given in full)", "IC50": 0.9}
{"compound": "O=C1CCC(N2C(=O)c3ccc(NCCOCCOCCOCCOCCC(=O)N4CCN(c5ccc(C(=O)Nc6n[nH]c7ccc(Cc8cc(F)cc(F)c8)cc67)c(NC6CCOCC6)c5)CC4)cc3C2=O)C(=O)N1", "note": "(stereo not given)", "IC50": 1.6}
